Values belong to the compound of their own block, whether it stands above or below them.
Key:
[1] = tested on: recombinant RRM1 or RRM2; assay: Competition of afatinib labeling of recombinant RNR subunits; conditions: pretreatment 2.5 mM, then 10 μM afatinib
[2] = tested on: protein asymmetric dimethylarginine (ADMA) in HeLa cells; assay: Protein ADMA levels in cultured HeLa cells (immunoblot); assay type: cell-based; conditions: for levels of protein ADMA in cell culture: 50 μM, short-term treatment
Protocol: Each group contained the same volume of DMSO and ethanol. After wash with TBS for three times, the cells were lysed with 900 μL RIPA lysis buffer and centrifuged to pellet down the debris. The supernatant was then transferred to a new tube and mixed with equal volume of 2×SDS sample buffer. Ten μL sample solution was for electrophoresis and immunoblotting. The signal of anti-GAPDH was used to adjust the amount of protein loading.
Since Bay 11-7082 inhibited PRMT1 activity in an in vitro assay, we then tested the inhibitory activity of this compound in cultured HeLa cells. The levels of ADMA are regulated by both methylation and demethylation. […] Some proteins of ADMA persisted several days in the absence of PRMT1. […] We also used histone H4R3 asymmetric dimethylation antibody as one kind of pan ADMA antibody (right panel, Supplementary FIG. 5). However, we noticed that the ADMA signals of one or two proteins increased in this experiment possibly due to the compensation activity caused by other PRMT family proteins (39) or disturbance of cell cycle progression affected by other target proteins of Bay 11-7082 (40). It is of interest to note that phenylsulfonyl structure present in Bay 11-7082 is also found in a PRMT1 inhibitor, C-7280948 (41), indicating the Bay 11-7082 could be a good lead compound for developing PRMT1 inhibitors. […] We included another Bay 11-7082 analog, Bay 11-7085 for comparison (42, 43).

[3] = tested on: PVS tagging of cysteine thiol groups of cellular proteins in HeLa cells; assay: Competition of PVS tagging in HeLa cells or lysate (anti-PVS immunoblot); assay type: cell-based
Protocol: HeLa cells were treated with 10 μM to 1 mM PVS in PBS for 1 h or with 0.1-2 mM PVD in PBS for 30 min. In the case of PVS and PVD combined treatment, HeLa cells were pretreated with PVD for 30 min and then treated with PVS in PBS for 1 h.
Based on the observations that PVS and PVSN were PTP covalent inhibitors (22), we attempted to develop an antiserum against PVS and use the antiserum in the identification of PVS-tagged proteins through immunoblotting and immunoprecipitation. First, we confirmed the inhibitory activity of PVS on PTPs and tested the efficacy of our antiserum against PVS. […] Higher concentrations of PVS elicited higher levels of PVS modification, but with the same pattern. […] Specificity of the anti-PVS was further tested by the combined treatment of ethyl vinyl sulfone (EVS) and PVS. HeLa cells were pretreated with 10 μM to 1 mM EVS in PBS for 30 min and then treated with 100 μM PVS in PBS for 1 h.
Pervanadate is an irreversible PTP inhibitor by oxidizing the active-site cysteine thiol of PTPs (24). If both PVS and pervanadate target the same thiol group, pretreatment of pervanadate would hinder the tagging of PVS. […] Next, we tested the competition of BVT 948 and NSC 95397 on the tagging of PVS. BVT 948 (25) and NSC 95397 (26) are PTP and dual specificity phosphatase inhibitors, respectively. Treatment of both drugs elicited increased amounts of tyrosine phosphorylation, albeit with different sensitivity and pattern.
HeLa cells were cultured to about 90% confluence on a 10-cm dish in DMEM with 10% FBS (5×10^6~1×10^7 cells). HeLa cells were lysed by repeated pipetting with 900 μL 2% Triton X-100 in 20 mM Tris-HCl, pH 8.0. The lysate was centrifuged at 12,000×g for 10 min and the supernatant was aliquoted (200 μL) and treated with PVS, PVSN, or Bay 11-7082 of various concentrations at room temperature for 5 to 60 min. The stocks of 1000×PVS, 1000×PVSN, and 1000× Bay 11-7082 were prepared in DMSO. The reaction was stopped by adding 1,4-dithioerythreitol to a final concentration of 10 mM. The reaction solution was then mixed with equal volume of 2× SDS sample buffer. Ten μL sample solution was used for SDS gel electrophoresis and immunoblotting. The signal of GAPDH was used to adjust the amount of protein loading.

[4] = molecular target: T1, Recombinant glutathione reductase (Homo sapiens, UniProt P00390); assay: In vitro enzyme activity of glutathione reductase; assay type: biochemical
T1 construct: purchased BioVision
T1 sequence (P00390 44-522): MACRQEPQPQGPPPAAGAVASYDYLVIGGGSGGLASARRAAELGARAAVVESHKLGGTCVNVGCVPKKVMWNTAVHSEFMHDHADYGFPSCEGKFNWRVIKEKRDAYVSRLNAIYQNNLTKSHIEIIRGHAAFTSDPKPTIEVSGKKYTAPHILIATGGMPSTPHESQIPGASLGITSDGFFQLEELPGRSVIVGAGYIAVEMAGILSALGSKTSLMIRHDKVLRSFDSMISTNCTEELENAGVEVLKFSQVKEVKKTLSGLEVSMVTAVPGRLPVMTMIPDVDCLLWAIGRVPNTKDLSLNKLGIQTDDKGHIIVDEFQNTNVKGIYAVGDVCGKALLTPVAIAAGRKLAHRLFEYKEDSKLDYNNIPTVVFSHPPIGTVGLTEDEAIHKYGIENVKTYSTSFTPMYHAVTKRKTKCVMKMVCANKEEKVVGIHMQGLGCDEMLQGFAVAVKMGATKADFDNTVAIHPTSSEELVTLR
Protocol: Recombinant glutathione reductase was first treated with NADPH and 10 or 50 μM PVS, PVSN or Bay 11-7082 for 1 h at room temperature. In the control group, recombinant glutathione reductase was treated with NADPH and the same volume of DMSO used in the treatment of drugs in the assay buffer. Following the addition of oxidized glutathione, the decrease in absorbance at A340 was monitored over 10 min. Results were presented as mean of three independent experiments plus and minus standard deviation.
The assay was carried out according to the protocol provided by BioVision Inc. (Catalog number K761-200). Recombinant glutathione reductase was first treated with NADPH and 10 μM or 50 μM PVS, PVSN or Bay11-7082 for 30 min at room temperature. In the control group, recombinant glutathione reductase was treated with NADPH and the same volume of DMSO used in the treatment of drugs in the assay buffer. Following the addition of oxidized glutathione, the decrease in absorbance at A340 was monitored over 10 min.
Based on the proteomic results, we first examined whether PVS, PVSN and Bay 11-7082 affected the activity of glutathione reductase (FIG. 5). All compounds were ineffective in inhibiting glutathione reductase at 10 μM. However, PVSN and Bay 11-7082 at 50 μM inhibited the activity of glutathione reductase by 61% and 74%, respectively. […]

[5] = molecular target: T2, recombinant PRMT1 (Homo sapiens, UniProt Q99873); assay: In vitro PRMT1 activity assay (histone H4 methylation, immunoblot); assay type: biochemical; conditions: for concentration that caused significant inhibition of methylation of histone H4: recombinant PRMT1, histone H4, S-adenosylmethionine; for IC50: three-point curve fit (5, 10, 100 μM), an estimation, read-out: IC50 (PRMT1, histone H4 as substrate)
T2 construct: purchased BPS Bioscience
Text: Three-point IC50 curves may provide an estimation, but certainly not an accurate calculation (data is not shown).

[6] = tested on: PTPs in HeLa cells; assay: Phosphotyrosine levels in HeLa cells (PTP inhibition, immunoblot); assay type: cell-based; conditions: 10 and 100 μM for 5 min
Protocol: FIG. 4 describes use of anti-PVS in recognition of PVSN and Bay 11-7082 adducts.
We next examined whether anti-PVS antiserum can be used in detection of target proteins probed by PVS analogs such as PVSN and Bay 11-7082. Treatment of PVSN and Bay 11-7082 at concentrations of 10 and 100 μM for 5 min increased the levels of phosphotyrosine modification in HeLa cells, especially Bay 11-7082 at 100 μM (FIG. 4) confirming their effects in PTP inhibition. PVSN-tagged proteins were abundantly recognized by anti-PVS antiserum (FIG. 5A), but only few Bay 11-7082-tagged proteins were detected by the anti-PVS antiserum (FIG. 5B). Therefore, anti-PVS antiserum can be readily used in the detection of proteins modified by PVS and PVSN.

[7] = tested on: PC-9 cells; assay: Afatinib labeling of proteins in PC-9 cells (anti-afatinib immunoblot); conditions: 1 h
Protocol: The control groups were treated with the same volume of DMSO.

T2 sequence (Q99873 whole entry): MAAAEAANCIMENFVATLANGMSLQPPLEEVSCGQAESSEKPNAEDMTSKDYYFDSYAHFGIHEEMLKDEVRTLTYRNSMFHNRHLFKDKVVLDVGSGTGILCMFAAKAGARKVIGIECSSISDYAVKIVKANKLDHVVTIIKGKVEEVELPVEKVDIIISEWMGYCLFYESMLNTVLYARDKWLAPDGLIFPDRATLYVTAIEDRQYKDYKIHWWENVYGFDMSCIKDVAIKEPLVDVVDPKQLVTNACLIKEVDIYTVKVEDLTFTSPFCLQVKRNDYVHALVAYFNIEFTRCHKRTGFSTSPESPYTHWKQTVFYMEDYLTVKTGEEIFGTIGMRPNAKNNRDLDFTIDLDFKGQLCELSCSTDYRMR

Compound: Nc1ccn([C@@H]2O[C@H](CO)[C@@H](O)C2(F)F)c(=O)n1 [gemcitabine]
- afatinib labeling [1]: almost completely blocked

Compound: O=C(Nc1ccc2c(O)cc(S(=O)(=O)O)cc2c1)Nc1ccc2c(O)cc(S(=O)(=O)O)cc2c1 [AMI-1]
- levels of protein ADMA in cell culture [2]: little effect

Compound: O=C1C(SCCO)=C(SCCO)C(=O)c2ccccc21 [NSC 95397]
- blocking of PVS tagging, comparison ([3]; in vitro and in cellulo): blocked PVS tagging better than BVT 948

Compound: Cc1ccc(S(=O)(=O)/C=C/C#N)cc1 [Bay 11-7082]
- inhibited the activity of glutathione reductase by ([4]; at 50 μM): 74%
- concentration that caused significant inhibition of methylation of histone H4 [5]: 2.5 µM
- IC50 [5]: 10.7 µM
- levels in ADMA of 25 and 35 kDa ([2]; 3 h): led to decline
- levels of phosphotyrosine modification [6]: increased

Compound: pervanadate
- tagging of PVS ([3]; HeLa cell lysate, 1 mM together with 100 μM PVS): almost completely blocked
- tagging of PVS ([3]; HeLa cells pretreated with 1 mM for 30 min): completely blocked

Compound: CN(C)C/C=C/C(=O)Nc1cc2c(Nc3ccc(F)c(Cl)c3)ncnc2cc1O[C@H]1CCOC1 [afatinib]
- concentration at which labeling signals were readily observed [7]: 1 µM

- concentration that caused significant inhibition of methylation of histone H4 [5]: 10 µM
- IC50 [5]: 23.3 µM
Compound: C=CS(=O)(=O)c1ccccc1 [PVS, Phenyl vinyl sulfone]
- levels of protein ADMA in cell culture [2]: did not change

Compound: C=CS(=O)(=O)CC [EVS, ethyl vinyl sulfone]
- PVS modification ([3]; HeLa cells pretreated at 100 μM and 1 mM for 30 min, then 100 μM PVS 1 h): significantly attenuated

- inhibition at 50 µM ([4]; read-out: inhibited the activity of glutathione reductase by): 61%
- concentration that caused significant inhibition of methylation of histone H4 [5]: 5 µM
- IC50 [5]: 10.4 µM
Compound: C=CS(=O)(=O)Oc1ccccc1 [PVSN, phenyl vinyl sulfonate]
- levels of protein ADMA in cell culture [2]: decreased the levels of protein ADMA slightly
- levels of phosphotyrosine modification [6]: increased

From patent US12730111B2, “Systems, methods, and compositions to identify new protein targets of a chemical compound or its derivatives” (priority 2019, dated 2026)
